Assay results reported in patent US20240238424A1, “HETEROBIFUNCTIONAL COMPOUNDS AND METHODS OF TREATING DISEASE” (Halda Therapeutics OpCo, Inc., priority 2021, published 2024).

What was measured:
Type in all cases: cell-based
[1] = test system: 22RV1 cells; test: Cellular growth inhibition assay (CTG), 22RV1 cells; details: Homo sapiens, CellTiter-Glo 2.0, day-5
Procedure: (§1) Cells were seeded in Poly-D-lysine-treated 384-well white plates, with 25 μL cell suspension at 250 cells/well for continuous treatments, and 1000 cells/well for washout treatments. Plates were spun at 300×g for 3 minutes, and cells were cultured at 37° C. with 5% CO2 in a humidified tissue culture incubator.
(§2) After 24 hours, the test compounds were diluted with cell culture medium in 96 deep well plates. DMSO was used as a negative control. A 25 μL aliquot of compound-containing medium was added in each well, at a final top concentration of 10 μM or 30 μM test compound, with 3-fold dilutions. For washout assays, after 4 hours, cell medium with compound was removed, and the cells were washed with 75p L fresh medium. Plates were then spun at 300×g for 3 minutes and replaced with 50 μL fresh medium in each well. Plates were then spun at 300×g for 3 minutes again and cultured at 37° C. with 5% CO2.
(§3) At day-0 and day-5 of compound treatments, cell viability was quantified with CellTiter-Glo 2.0 (Promega). After equilibrating cell plates at room temperature for 30 minutes, 25 μL CellTiter-Glo 2.0 reagent was dispensed into each well (on top of 50 μL of cell culture). Plates were mixed on a shaker for 2 minutes at 500 rpm, followed by a 10-minute incubation at room temperature. Luminescence readings were measured with an EnVision Plate Reader. Data was normalized to DMSO treated day-0 cell wells. A four-parameter non-linear regression curve fit was applied to dose-response data in Prism to determine the half maximal growth inhibitory concentration (GI50) of each compound.

[2] = biological target: T1, GSPT1 (Homo sapiens, UniProt P15170+Q96SW2); test: GSPT1 HiBit degradation assay; details: HEK293 LgBiT cells expressing GSPT1_HiBiT, luminescence after 6 hours
T1 construct: host or cells: HEK293 LgBiT cell line
Procedure, shortened: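 HEK293 cells stably expressing LgBiT and GSPT1-HiBiT, seeded 18-24 h before dosing, were treated with titrated compound plus endurazine (0.5× final) at 37 °C. Luminescence loss after 6 h reflects GSPT1 degradation; DC50 is the concentration giving 50% degradation.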

[3] = test system: U937 cells; test: Cellular growth inhibition assay (CTG), U937 cells; details: Homo sapiens, U-937, CellTiter-Glo 2.0, day-5
Procedure: as §1, §2, §3

[4] = test system: 293 mutant EGFR_T790M L858R Cells; test: Cellular growth inhibition assay (CTG), 293 mutant EGFR_T790M L858R cells; details: 293 mutant EGFR T790M L858R cells, CellTiter-Glo 2.0, day-5
Procedure: as §1, §2, §3

T1 sequence (P15170 whole entry): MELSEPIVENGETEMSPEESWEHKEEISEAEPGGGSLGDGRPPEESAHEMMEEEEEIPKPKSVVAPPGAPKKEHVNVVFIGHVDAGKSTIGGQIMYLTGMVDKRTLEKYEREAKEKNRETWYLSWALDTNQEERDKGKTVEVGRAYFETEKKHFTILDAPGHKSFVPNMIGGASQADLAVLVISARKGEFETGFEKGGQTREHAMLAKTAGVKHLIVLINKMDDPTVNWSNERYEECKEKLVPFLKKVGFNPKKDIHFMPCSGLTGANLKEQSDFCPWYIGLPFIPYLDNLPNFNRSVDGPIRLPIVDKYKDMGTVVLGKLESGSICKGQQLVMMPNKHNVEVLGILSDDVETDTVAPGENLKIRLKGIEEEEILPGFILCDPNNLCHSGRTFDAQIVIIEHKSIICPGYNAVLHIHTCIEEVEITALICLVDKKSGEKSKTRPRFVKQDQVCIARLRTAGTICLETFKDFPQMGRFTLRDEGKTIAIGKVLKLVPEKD
T1 sequence (Q96SW2 whole entry): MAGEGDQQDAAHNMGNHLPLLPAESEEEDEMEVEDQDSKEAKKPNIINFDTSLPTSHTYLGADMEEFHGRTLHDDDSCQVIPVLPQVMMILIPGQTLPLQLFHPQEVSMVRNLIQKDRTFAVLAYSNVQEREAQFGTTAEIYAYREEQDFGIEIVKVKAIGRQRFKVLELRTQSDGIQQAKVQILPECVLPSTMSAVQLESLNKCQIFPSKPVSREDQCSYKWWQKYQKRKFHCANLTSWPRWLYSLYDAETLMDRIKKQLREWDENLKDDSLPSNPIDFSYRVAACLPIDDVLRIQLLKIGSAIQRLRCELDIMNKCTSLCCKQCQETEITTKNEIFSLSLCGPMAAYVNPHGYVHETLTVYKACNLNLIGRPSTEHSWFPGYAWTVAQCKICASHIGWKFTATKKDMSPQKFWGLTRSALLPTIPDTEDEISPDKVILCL
T1 sequence (Q16531 whole entry partner): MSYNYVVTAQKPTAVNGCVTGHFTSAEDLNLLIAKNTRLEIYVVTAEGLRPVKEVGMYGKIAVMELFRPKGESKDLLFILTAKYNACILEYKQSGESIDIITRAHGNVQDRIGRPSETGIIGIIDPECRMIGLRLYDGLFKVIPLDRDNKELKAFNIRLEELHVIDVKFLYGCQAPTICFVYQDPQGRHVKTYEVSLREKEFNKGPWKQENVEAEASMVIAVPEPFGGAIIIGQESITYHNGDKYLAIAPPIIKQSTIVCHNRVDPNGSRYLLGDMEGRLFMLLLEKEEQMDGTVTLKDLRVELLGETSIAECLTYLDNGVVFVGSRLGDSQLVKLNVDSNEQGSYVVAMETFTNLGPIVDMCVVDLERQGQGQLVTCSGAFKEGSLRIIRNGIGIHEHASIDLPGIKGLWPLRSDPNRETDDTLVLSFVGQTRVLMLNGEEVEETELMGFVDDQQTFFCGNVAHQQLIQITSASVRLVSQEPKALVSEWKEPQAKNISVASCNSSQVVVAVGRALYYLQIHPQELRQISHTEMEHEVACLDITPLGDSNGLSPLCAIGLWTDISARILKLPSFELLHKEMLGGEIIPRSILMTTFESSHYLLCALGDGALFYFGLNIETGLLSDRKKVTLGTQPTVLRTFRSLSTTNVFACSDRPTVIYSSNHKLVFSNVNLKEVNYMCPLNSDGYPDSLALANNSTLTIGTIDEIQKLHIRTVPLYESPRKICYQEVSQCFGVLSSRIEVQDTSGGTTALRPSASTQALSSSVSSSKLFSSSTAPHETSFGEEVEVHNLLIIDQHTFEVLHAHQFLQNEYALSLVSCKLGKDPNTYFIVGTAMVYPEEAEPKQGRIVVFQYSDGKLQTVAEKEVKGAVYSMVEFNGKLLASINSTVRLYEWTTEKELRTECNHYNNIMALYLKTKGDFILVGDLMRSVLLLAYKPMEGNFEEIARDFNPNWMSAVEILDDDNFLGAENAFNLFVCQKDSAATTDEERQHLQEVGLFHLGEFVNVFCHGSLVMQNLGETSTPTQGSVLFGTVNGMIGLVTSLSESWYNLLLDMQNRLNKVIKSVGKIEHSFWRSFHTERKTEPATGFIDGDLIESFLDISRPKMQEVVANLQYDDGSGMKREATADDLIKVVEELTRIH

Row | GI50 [1] [µM] | DC50 ([2]; Table 3) [µM] | GI50 [3] [µM] | DC50 ([2]; Table 3A) [µM] | Compound | GI50 [4] [µM]
1 |  |  |  | 0.25 to 5 | COc1cc(N(C)CCN(C)C)c(NC(=O)/C=C/CN(C)CCOCCOCCOCCCCCc2cc(Cl)cc(NC(=O)NCc3ccc4c(c3)CN(C3CCC(=O)NC3=O)C4=O)c2)cc1Nc1nccc(-c2cn(C)c3ccccc23)n1 (stereo not shown) [Compound I-145] | 1 to 5
2 |  |  |  | 0.25 to 5 | COc1cc(N(C)CCN(C)C)c(NC(=O)/C=C/CN(C)CCOCCOCCOCCOCCOCCOCCOCCCCCc2cc(Cl)cc(NC(=O)NCc3ccc4c(c3)CN(C3CCC(=O)NC3=O)C4=O)c2)cc1Nc1nccc(-c2cn(C)c3ccccc23)n1 (stereo not shown) [Compound I-146] | 1 to 5
3 |  |  |  | 0.25 to 5 | COc1nn(C)cc1Nc1nc(N2CC(NC(=O)/C=C/CN(C)CCOCCOCCOCCCCCc3cc(Cl)cc(NC(=O)NCc4ccc5c(c4)CN(C4CCC(=O)NC4=O)C5=O)c3)[C@H](F)C2)nc2c1ncn2C (stereo partly shown) [Compound I-150] | 1 to 5
4 |  |  |  | 0.25 to 5 | COc1cc(N(C)CCN(C)C)c(NC(=O)/C=C/CN(C)CCOCCOCCOCCOCCOCCCCCc2cc(Cl)cc(NC(=O)NCc3ccc4c(c3)CN(C3CCC(=O)NC3=O)C4=O)c2)cc1Nc1nccc(-c2cn(C)c3ccccc23)n1 (stereo not shown) [Compound I-151] | 0.1 to 1
5 |  |  |  | < 0.25 | C=CC(=O)NC1CN(c2nc(Nc3cn(CCOCCOCCOCCOCCOCCCCCc4cc(Cl)cc(NC(=O)NCc5ccc6c(c5)CN(C5CCC(=O)NC5=O)C6=O)c4)nc3OC)c3ncn(C)c3n2)C[C@H]1F (stereo partly shown) [Compound I-155] | 0.1 to 1
6 |  |  |  | 0.25 to 5 | COc1nn(C)cc1Nc1nc(N2CC(NC(=O)/C=C/CN(C)CCOCCOCCOCCOCCOCCCCCc3cc(Cl)cc(NC(=O)NCc4ccc5c(c4)CN(C4CCC(=O)NC4=O)C5=O)c3)[C@H](F)C2)nc2c1ncn2C (stereo partly shown) [Compound I-159] | 1 to 5
7 |  |  |  | 0.25 to 5 | C=CC(=O)Nc1cc(Nc2nccc(-c3cn(C)c4ccccc34)n2)c(OC)cc1N(C)CCN(C)CCOCCOCCOCCOCCOCCOCCOCCOCCOCCCCCc1cc(Cl)cc(NC(=O)NCc2ccc3c(c2)CN(C2CCC(=O)NC2=O)C3=O)c1 (stereo not shown) [Compound I-160] | 0.1 to 1
8 |  |  |  | 0.25 to 5 | C=CC(=O)Nc1cc(Nc2nccc(-c3cn(C)c4ccccc34)n2)c(OC)cc1N(C)CCN(C)CCOCCOCCOCCOCCOCCOCCOCCOCCOCCOCCOCCCCCc1cc(Cl)cc(NC(=O)NCc2ccc3c(c2)CN(C2CCC(=O)NC2=O)C3=O)c1 (stereo not shown) [Compound I-161] | 1 to 5

Second part, the compound before the results:

Row | Compound | GI50 [1] [µM] | DC50 ([2]; Table 3) [µM] | GI50 [3] [µM] | DC50 ([2]; Table 3A) [µM] | GI50 [4] [µM]
9 | CC1(C)[C@H](NC(=O)c2ccc(OCCOCCOCCOCCOCCOCCOCCOc3cc(Cl)cc(NC(=O)NCc4ccc5c(c4)CN(C4CCC(=O)NC4=O)C5=O)c3)cc2)C(C)(C)[C@H]1Oc1ccc(C#N)c(Cl)c1 (stereo partly shown) [Compound I-19, N-((1r,3r)-3-(3-chloro-4-cyanophenoxy)-2,2,4,4-tetramethylcyclobutyl)-4-((20-(3-chloro-5-(3-((2-(2,6-dioxopiperidin-3-yl)-1-oxoisoindolin-5-yl)methyl)ureido)phenoxy)-3,6,9,12,15,18-hexaoxaicosyl)oxy)benzamide] | < 0.1 | 0.25 to 5 |  |  | 
10 | CC1(C)[C@H](NC(=O)c2ccc(OCCOCCOCCOCCOCCOCCOCCOCCOCCOc3cc(Cl)cc(NC(=O)NCc4ccc5c(c4)CN(C4CCC(=O)NC4=O)C5=O)c3)cc2)C(C)(C)[C@H]1Oc1ccc(C#N)c(Cl)c1 (stereo partly shown) [Compound I-20, N-[3-(3-chloro-4-cyano-phenoxy)-2,2,4,4-tetramethyl-cyclobutyl]-4-[2-[2-[2-[2-[2-[2-[2-[2-[2-[3-chloro-5-[[2-(2,6-dioxo-3-piperidyl)-1-oxo-isoindolin-5-yl]methylcarbamoylamino]phenoxy]ethoxy]ethoxy]ethoxy]ethoxy]ethoxy]ethoxy]ethoxy]ethoxy]ethoxy]benzamide] | < 0.1 | 0.25 to 5 |  |  | 
11 | CC1(C)[C@H](NC(=O)c2ccc(OCCOCCOCCOCCOCCOCCOCCOCCOCCOCCOCCOc3cc(Cl)cc(NC(=O)NCc4ccc5c(c4)CN(C4CCC(=O)NC4=O)C5=O)c3)cc2)C(C)(C)[C@H]1Oc1ccc(C#N)c(Cl)c1 (stereo partly shown) [Compound I-21, N-[3-(3-chloro-4-cyano-phenoxy)-2,2,4,4-tetramethyl-cyclobutyl]-4-[2-[2-[2-[2-[2-[2-[2-[2-[2-[2-[2-[3-chloro-5-[[2-(2,6-dioxo-3-piperidyl)-1-oxo-isoindolin-5-yl]methylcarbamoylamino]phenoxy]ethoxy]ethoxy]ethoxy]ethoxy]ethoxy]ethoxy]ethoxy]ethoxy]ethoxy]ethoxy]ethoxy]benzamide] | 0.1 to 1 | 0.25 to 5 |  |  | 
12 | Nc1ncnc2c1c(-c1ccc(Oc3ccccc3)cc1)nn2[C@@H]1CCCN(C(=O)/C=C/COCCOCCOCCOCCOCCOCCOCCOc2cc(Cl)cc(NC(=O)NCc3ccc4c(c3)CN(C3CCC(=O)NC3=O)C4=O)c2)C1 (stereo partly shown) [Compound I-30] |  |  | 0.1 to 1 |  | 
13 | Nc1ncnc2c1c(-c1ccc(Oc3ccccc3)cc1)nn2[C@@H]1CCCN(C(=O)/C=C/COCCOCCOCCOCCOCCOCCOCCOCCOCCOc2cc(Cl)cc(NC(=O)NCc3ccc4c(c3)CN(C3CCC(=O)NC3=O)C4=O)c2)C1 (stereo partly shown) [Compound I-31] |  | 0.25 to 5 | 1 to 5 |  | 
14 | Nc1ncnc2c1c(-c1ccc(Oc3ccccc3)cc1)nn2[C@@H]1CCCN(C(=O)/C=C/COCCOCCOCCOCCOCCOCCOCCOCCOCCOCCOCCOc2cc(Cl)cc(NC(=O)NCc3ccc4c(c3)CN(C3CCC(=O)NC3=O)C4=O)c2)C1 (stereo partly shown) [Compound I-32] |  |  | 1 to 5 |  | 
15 | CN(C/C=C/C(=O)N1CCC[C@@H](n2nc(-c3ccc(Oc4ccccc4)cc3)c3c(N)ncnc32)C1)CCOCCOCCOCCOCCCCCCCCc1cc(Cl)cc(NC(=O)NCc2ccc3c(c2)CN(C2CCC(=O)NC2=O)C3=O)c1 (stereo partly shown) [Compound I-67] |  | < 0.25 | < 0.1 |  | 
16 | CN(C/C=C/C(=O)N1CCC[C@@H](n2nc(-c3ccc(Oc4ccccc4)cc3)c3c(N)ncnc32)C1)CCOCCOCCOCCOCCOCCOCCCCCCCCc1cc(Cl)cc(NC(=O)NCc2ccc3c(c2)CN(C2CCC(=O)NC2=O)C3=O)c1 (stereo partly shown) [Compound I-72] |  | < 0.25 | < 0.1 |  | 
17 | CN(C/C=C/C(=O)N1CCC[C@@H](n2nc(-c3ccc(Oc4ccccc4)cc3)c3c(N)ncnc32)C1)CCOCCOCCOCCOCCOCCOCCOCCOCCCCCCCCc1cc(Cl)cc(NC(=O)NCc2ccc3c(c2)CN(C2CCC(=O)NC2=O)C3=O)c1 (stereo partly shown) [Compound I-73] |  | < 0.25 | < 0.1 |  | 
18 | CN(C/C=C/C(=O)N1CCC([C@@H]2CCNc3c(C(N)=O)c(-c4ccc(Oc5ccccc5)cc4)nn32)CC1)CCOCCOCCOCCOCCCCCCCCc1cc(Cl)cc(NC(=O)NCc2ccc3c(c2)CN(C2CCC(=O)NC2=O)C3=O)c1 (stereo partly shown) [Compound I-74] |  | < 0.25 | < 0.1 |  | 
19 | CN(C/C=C/C(=O)N1CCC([C@@H]2CCNc3c(C(N)=O)c(-c4ccc(Oc5ccccc5)cc4)nn32)CC1)CCOCCOCCOCCOCCOCCOCCCCCCCCc1cc(Cl)cc(NC(=O)NCc2ccc3c(c2)CN(C2CCC(=O)NC2=O)C3=O)c1 (stereo partly shown) [Compound I-75] |  | < 0.25 | < 0.1 |  | 
20 | CN(C/C=C/C(=O)N1CCC([C@@H]2CCNc3c(C(N)=O)c(-c4ccc(Oc5ccccc5)cc4)nn32)CC1)CCOCCOCCOCCOCCOCCOCCOCCOCCCCCCCCc1cc(Cl)cc(NC(=O)NCc2ccc3c(c2)CN(C2CCC(=O)NC2=O)C3=O)c1 (stereo partly shown) [Compound I-76] |  | < 0.25 | < 0.1 |  | 
21 | C=CC(=O)Nc1cc(Nc2nccc(-c3cn(C)c4ccccc34)n2)c(OC)cc1N(C)CCN(C)CCOCCOCCOCCOCCOCCCCCc1cc(Cl)cc(NC(=O)NCc2ccc3c(c2)CN(C2CCC(=O)NC2=O)C3=O)c1 (stereo not shown) [Compound I-125] |  |  |  | 0.25 to 5 | 1 to 5
22 | C=CC(=O)NC1CN(c2nc(Nc3cn(CCOCCOCCOCCOCCOCCOCCOCCCCCc4cc(Cl)cc(NC(=O)NCc5ccc6c(c5)CN(C5CCC(=O)NC5=O)C6=O)c4)nc3OC)c3ncn(C)c3n2)C[C@H]1F (stereo partly shown) [Compound I-130] |  |  |  | 0.25 to 5 | 0.1 to 1
23 | COc1nn(C)cc1Nc1nc(N2CC(NC(=O)/C=C/CN(C)CCOCCOCCOCCOCCOCCOCCOCCOCCOCCCCCc3cc(Cl)cc(NC(=O)NCc4ccc5c(c4)CN(C4CCC(=O)NC4=O)C5=O)c3)[C@H](F)C2)nc2c1ncn2C (stereo partly shown) [Compound I-131] |  |  |  | 0.25 to 5 | 1 to 5
24 | COc1cc(N(C)CCN(C)C)c(NC(=O)/C=C/CN(C)CCOCCOCCOCCOCCOCCOCCOCCOCCOCCCCCc2cc(Cl)cc(NC(=O)NCc3ccc4c(c3)CN(C3CCC(=O)NC3=O)C4=O)c2)cc1Nc1nccc(-c2cn(C)c3ccccc23)n1 (stereo not shown) [Compound I-132] |  |  |  | 0.25 to 5 | 1 to 5
